Values quoted from earlier work in patent publication US10881104B2, “Arthropod control composition, formulation, and method” (priority 2013, dated 2021).

System: D. variabilis
Conditions: unformulated; 2 h after application

With `CCCCCCCCCC(C)=O` [Formulation 2-undecanone, 2-undecanone] as the molecule, how does the repellency read?
The repellency was 74%.
